Reference: ChEMBL document CHEMBL4507293 (2021)

Legend:
[1] = target: B1 bradykinin receptor (Homo sapiens) (UniProt P46663); assay: Inhibition of Bradykinin B1 at 10 µM in the Eurofins-Panlabs radioligand binding assay (Eurofins_assay_212510); details: Compound concentration 10.0 uM
[2] = target: Neuropeptide Y receptor type 1 (Homo sapiens) (UniProt P25929); assay: Inhibition of Neuropeptide Y Y1 at 10 µM in the Eurofins-Panlabs radioligand binding assay (Eurofins_assay_257010); details: Compound concentration 10.0 uM
[3] = target: ATP-sensitive inward rectifier potassium channel 11 (Cricetulus griseus) (UniProt A0A3L7HHE1); assay: Inhibition of Potassium Channel [KATP] at 10 µM in the Eurofins-Panlabs radioligand binding assay (Eurofins_assay_265600); details: Cricetinae; Compound concentration 10.0 uM
[4] = target: Cholecystokinin receptor type A (Homo sapiens) (UniProt P32238); assay: Inhibition of Cholecystokinin CCK1 (CCKA) at 10 µM in the Eurofins-Panlabs radioligand binding assay (Eurofins_assay_218020); details: Compound concentration 10.0 uM
Chain of Cholecystokinin receptor type A (Homo sapiens) (P32238 whole entry): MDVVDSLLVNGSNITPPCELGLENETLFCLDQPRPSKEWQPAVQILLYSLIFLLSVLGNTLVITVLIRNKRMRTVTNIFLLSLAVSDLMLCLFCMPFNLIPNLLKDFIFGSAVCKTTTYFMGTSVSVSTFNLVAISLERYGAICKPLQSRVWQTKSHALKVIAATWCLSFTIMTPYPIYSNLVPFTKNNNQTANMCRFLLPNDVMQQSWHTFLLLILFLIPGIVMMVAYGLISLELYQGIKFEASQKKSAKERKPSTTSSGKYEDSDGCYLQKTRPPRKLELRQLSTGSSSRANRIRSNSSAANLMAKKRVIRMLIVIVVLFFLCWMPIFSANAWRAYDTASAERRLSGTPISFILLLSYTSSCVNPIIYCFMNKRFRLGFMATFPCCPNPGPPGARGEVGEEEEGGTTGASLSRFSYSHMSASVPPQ

[5] = target: Melanocortin receptor 5 (Homo sapiens) (UniProt P33032); assay: Inhibition of Melanocortin MC5 at 10 µM in the Eurofins-Panlabs radioligand binding assay (Eurofins_assay_251400); parameters: ligand concentration 0.035 nM; details: Compound concentration 10.0 uM
[6] = target: 5-hydroxytryptamine receptor 3A (Homo sapiens) (UniProt P46098); assay: Inhibition of Serotonin (5-Hydroxytryptamine) 5-HT3 at 10 µM in the Eurofins-Panlabs radioligand binding assay (Eurofins_assay_271910); parameters: ligand concentration 0.69 nM; details: Compound concentration 10.0 uM
Chain of 5-hydroxytryptamine receptor 3A (Homo sapiens) (P46098 whole entry): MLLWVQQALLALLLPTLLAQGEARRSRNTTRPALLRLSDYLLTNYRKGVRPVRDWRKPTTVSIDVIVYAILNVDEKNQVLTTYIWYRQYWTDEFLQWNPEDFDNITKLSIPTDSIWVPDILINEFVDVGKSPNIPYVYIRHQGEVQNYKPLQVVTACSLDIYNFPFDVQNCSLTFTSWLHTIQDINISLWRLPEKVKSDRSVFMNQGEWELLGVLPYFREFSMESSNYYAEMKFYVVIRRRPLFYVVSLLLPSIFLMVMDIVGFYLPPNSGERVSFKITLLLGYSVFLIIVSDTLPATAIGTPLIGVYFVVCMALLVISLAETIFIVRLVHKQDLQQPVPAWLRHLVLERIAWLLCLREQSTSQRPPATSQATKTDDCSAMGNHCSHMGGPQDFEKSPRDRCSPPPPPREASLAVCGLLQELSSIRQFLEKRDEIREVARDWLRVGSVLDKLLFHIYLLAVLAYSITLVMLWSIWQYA

[7] = target: Substance-K receptor (Homo sapiens) (UniProt P21452); assay: Inhibition of Tachykinin NK2 at 10 µM in the Eurofins-Panlabs radioligand binding assay (Eurofins_assay_255600); parameters: ligand concentration 0.5 nM; details: Compound concentration 10.0 uM
[8] = target: Adenosine Transporter (Cavia porcellus) (UniProt H0V4R7+H0UUG1+H0V3Z5); assay: (§1) Inhibition of Transporter, Adenosine at compound concentration of 10.0 uM in the Eurofins-Panlabs radioligand binding assay (Eurofins_assay_202000); format: protein assay; parameters: ligand concentration 0.5 nM, non-specific ligand with concentration 5 uM Nitrobenzylthioinosine, incubation time 30 min, incubation temperature 25 C
Adenosine Transporter = Adenosine Transporter (Cavia porcellus, UniProt H0V4R7+H0UUG1+H0V3Z5); assay: as §1; format: protein assay; parameters: ligand concentration 0.5 nM, non-specific ligand with concentration 5 uM Nitrobenzylthioinosine, incubation time 30 min, incubation temperature 25 C
[9] = target: Substance-P receptor (Homo sapiens) (UniProt P25103); assay: Tachykinin NK1 Eurofins-Panlabs radioligand binding assay; details: Compound concentration 10.0 uM
[10] = target: Corticotropin-releasing factor receptor 1 (Homo sapiens) (UniProt P34998); assay: Corticotropin Releasing Factor CRF1 Eurofins-Panlabs radioligand binding assay; details: Compound concentration 10.0 uM
Chain of Corticotropin-releasing factor receptor 1 (Homo sapiens) (P34998 whole entry): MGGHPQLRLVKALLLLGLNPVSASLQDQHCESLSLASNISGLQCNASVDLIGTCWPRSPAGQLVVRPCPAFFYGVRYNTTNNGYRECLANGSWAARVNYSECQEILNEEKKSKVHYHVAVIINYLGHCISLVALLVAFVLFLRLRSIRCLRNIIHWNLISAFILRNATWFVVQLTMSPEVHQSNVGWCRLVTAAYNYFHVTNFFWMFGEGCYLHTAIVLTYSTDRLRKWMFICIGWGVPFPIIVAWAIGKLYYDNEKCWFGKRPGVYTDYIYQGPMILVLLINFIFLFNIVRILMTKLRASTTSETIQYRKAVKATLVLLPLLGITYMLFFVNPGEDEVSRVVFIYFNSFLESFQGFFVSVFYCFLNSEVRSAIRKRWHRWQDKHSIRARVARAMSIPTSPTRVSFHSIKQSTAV

[11] = target: Peroxisome proliferator-activated receptor alpha (Homo sapiens) (UniProt Q07869); assay: PPARalpha Eurofins-Panlabs radioligand binding assay; details: Compound concentration 10.0 uM
Chain of Peroxisome proliferator-activated receptor alpha (Homo sapiens) (Q07869 whole entry): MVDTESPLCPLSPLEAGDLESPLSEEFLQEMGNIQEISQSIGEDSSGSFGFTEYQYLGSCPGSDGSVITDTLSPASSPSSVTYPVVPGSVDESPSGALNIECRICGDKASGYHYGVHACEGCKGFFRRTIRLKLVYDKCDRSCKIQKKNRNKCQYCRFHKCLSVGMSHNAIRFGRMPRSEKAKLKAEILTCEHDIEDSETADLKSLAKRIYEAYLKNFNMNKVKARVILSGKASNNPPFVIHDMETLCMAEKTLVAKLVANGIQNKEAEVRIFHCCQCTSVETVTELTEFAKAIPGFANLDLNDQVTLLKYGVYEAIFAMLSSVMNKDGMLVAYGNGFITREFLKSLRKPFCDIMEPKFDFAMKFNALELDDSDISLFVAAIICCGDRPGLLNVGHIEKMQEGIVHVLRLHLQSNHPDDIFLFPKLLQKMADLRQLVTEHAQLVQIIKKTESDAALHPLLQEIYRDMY

[12] = target: Peroxisome proliferator-activated receptor gamma (Homo sapiens) (UniProt P37231); assay: PPARgamma Eurofins-Panlabs radioligand binding assay; parameters: ligand concentration 5 nM, non-specific ligand with concentration 0.5 µM L-797773, incubation time 18 h, incubation temperature 15 °C; details: Compound concentration 10.0 uM
[13] = target: Prostaglandin E2 receptor EP3 subtype (Homo sapiens) (UniProt P43115); assay: Prostanoid EP3 Eurofins-Panlabs radioligand binding assay; parameters: ligand concentration 0.5 nM, non-specific ligand with concentration 10 µM Prostaglandin EŽ2 (PGE2), incubation time 60 min, incubation temperature 25 °C; details: Compound concentration 10.0 uM
[14] = target: Insulin receptor (Homo sapiens) (UniProt P06213); assay: Protein Tyrosine Kinase, Insulin Receptor Eurofins-Panlabs enzyme assay; parameters: substrate with concentration 10 µg/mL Histone H1, incubation time 60 min, incubation temperature 25 °C; details: Compound concentration 10.0 uM
[15] = target: C-C chemokine receptor type 1 (Homo sapiens) (UniProt P32246); assay: Chemokine CCR1 Eurofins-Panlabs radioligand binding assay; details: Compound concentration 10.0 uM
[16] = target: Glutamate NMDA receptor; GRIN1/GRIN2A (Homo sapiens) (UniProt Q05586+Q12879); assay: NMDA-NR1a/NR2a Eurofins-Panlabs radioligand binding assay; format: protein-complex assay; details: Compound concentration 10.0 uM
[17] = target: Adenosine receptor A2a (Homo sapiens) (UniProt P29274); details: Compound concentration 10.0 uM
[18] = target: Cannabinoid receptor 1 (Homo sapiens) (UniProt P21554); details: Compound concentration 10.0 uM
Chain of Cannabinoid receptor 1 (Homo sapiens) (P21554 whole entry): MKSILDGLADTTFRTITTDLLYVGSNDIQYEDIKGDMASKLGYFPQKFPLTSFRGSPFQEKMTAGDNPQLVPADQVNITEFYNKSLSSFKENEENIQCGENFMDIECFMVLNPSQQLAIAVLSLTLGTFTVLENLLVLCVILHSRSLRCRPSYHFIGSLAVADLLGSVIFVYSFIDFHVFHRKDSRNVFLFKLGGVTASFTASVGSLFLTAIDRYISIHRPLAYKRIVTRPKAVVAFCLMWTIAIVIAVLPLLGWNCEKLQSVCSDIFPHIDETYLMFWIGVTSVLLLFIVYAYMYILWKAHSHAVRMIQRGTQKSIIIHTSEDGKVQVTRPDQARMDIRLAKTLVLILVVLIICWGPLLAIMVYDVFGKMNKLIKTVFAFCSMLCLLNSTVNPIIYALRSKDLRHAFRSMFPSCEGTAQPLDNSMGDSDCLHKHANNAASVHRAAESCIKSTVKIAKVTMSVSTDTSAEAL

[19] = target: Endothelin-1 receptor (Homo sapiens) (UniProt P25101); details: Compound concentration 10.0 uM
[20] = target: Histamine H2 receptor (Homo sapiens) (UniProt P25021); details: Compound concentration 10.0 uM
Chain of Histamine H2 receptor (Homo sapiens) (P25021 whole entry): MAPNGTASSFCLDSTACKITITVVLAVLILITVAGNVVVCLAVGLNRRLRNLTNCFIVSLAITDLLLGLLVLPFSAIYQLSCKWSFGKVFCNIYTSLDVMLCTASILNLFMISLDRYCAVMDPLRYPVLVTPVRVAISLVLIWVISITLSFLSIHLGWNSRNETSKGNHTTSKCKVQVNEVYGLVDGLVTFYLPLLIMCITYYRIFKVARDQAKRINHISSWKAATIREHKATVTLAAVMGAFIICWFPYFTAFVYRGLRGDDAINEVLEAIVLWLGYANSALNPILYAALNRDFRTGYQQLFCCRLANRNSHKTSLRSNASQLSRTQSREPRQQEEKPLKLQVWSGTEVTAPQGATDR

[21] = target: T1, Muscarinic acetylcholine receptor M1 (Homo sapiens) (UniProt P11229); details: Compound concentration 10.0 uM
T1 sequence (whole entry): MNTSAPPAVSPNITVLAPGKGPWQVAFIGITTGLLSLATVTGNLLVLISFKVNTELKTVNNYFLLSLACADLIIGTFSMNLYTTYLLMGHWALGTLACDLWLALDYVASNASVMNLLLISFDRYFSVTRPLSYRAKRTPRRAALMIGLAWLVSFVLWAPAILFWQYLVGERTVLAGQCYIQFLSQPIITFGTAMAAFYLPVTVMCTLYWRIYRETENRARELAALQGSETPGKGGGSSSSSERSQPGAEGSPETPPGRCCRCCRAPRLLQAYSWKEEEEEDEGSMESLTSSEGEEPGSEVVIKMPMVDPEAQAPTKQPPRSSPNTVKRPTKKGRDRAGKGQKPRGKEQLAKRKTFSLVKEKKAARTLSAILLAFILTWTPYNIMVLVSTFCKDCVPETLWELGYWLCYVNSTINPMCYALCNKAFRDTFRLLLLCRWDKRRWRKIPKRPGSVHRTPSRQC

[22] = target: T2, Muscarinic acetylcholine receptor M2 (Homo sapiens) (UniProt P08172); details: Compound concentration 10.0 uM
T2 sequence (whole entry): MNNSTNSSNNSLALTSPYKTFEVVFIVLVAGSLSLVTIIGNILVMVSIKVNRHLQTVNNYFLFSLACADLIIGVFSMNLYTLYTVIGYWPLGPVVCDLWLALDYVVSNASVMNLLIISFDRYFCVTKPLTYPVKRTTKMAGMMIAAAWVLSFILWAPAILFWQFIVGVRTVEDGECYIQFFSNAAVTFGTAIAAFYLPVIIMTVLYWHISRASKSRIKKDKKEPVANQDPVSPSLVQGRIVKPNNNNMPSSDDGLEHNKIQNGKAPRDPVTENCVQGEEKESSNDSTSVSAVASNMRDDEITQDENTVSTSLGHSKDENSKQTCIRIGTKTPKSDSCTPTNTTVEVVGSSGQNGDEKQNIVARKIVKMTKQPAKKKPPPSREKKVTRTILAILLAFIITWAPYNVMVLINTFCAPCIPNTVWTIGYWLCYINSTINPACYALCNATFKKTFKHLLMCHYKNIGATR

[23] = target: Acetylcholinesterase (Homo sapiens) (UniProt P22303); details: Compound concentration 10.0 uM
Chain of Acetylcholinesterase (Homo sapiens) (P22303 whole entry): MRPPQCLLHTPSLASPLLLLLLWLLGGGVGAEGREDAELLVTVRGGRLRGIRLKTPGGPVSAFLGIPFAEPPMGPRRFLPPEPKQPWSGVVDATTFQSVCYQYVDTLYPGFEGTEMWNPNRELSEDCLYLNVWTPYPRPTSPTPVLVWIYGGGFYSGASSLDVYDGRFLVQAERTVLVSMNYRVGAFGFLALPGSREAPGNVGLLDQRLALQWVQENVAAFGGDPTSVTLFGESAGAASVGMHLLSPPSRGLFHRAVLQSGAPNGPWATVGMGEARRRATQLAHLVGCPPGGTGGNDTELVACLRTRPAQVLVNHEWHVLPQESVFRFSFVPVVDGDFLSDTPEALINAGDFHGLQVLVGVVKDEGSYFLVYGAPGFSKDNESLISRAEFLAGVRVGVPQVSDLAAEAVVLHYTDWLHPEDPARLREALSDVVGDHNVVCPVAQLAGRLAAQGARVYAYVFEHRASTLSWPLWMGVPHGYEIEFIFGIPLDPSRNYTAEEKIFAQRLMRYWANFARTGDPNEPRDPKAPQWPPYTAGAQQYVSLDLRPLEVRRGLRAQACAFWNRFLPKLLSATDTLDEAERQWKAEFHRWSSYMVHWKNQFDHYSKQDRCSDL

[24] = target: Beta-3 adrenergic receptor (Homo sapiens) (UniProt P13945); details: Compound concentration 10.0 uM
Chain of Beta-3 adrenergic receptor (Homo sapiens) (P13945 whole entry, looked up, canonical isoform): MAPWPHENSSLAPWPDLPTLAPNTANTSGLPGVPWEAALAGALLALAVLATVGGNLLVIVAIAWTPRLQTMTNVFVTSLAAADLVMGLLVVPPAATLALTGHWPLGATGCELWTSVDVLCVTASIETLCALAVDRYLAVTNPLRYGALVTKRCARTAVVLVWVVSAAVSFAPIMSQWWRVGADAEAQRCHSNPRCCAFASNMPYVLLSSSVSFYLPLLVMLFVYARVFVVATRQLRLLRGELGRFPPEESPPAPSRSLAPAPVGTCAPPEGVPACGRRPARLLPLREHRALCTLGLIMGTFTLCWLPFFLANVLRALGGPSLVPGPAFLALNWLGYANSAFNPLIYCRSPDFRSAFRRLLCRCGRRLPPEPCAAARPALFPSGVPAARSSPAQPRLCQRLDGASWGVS

[25] = tested on: Phosphatidylinositol 4,5-bisphosphate 3-kinase catalytic subunit alpha isoform (Homo sapiens), P42336 [H1047L]; details: Compound concentration 100.0 nM
Chain of Phosphatidylinositol 4,5-bisphosphate 3-kinase catalytic subunit alpha isoform (Homo sapiens), P42336 [H1047L] (P42336 whole entry H1047L, canonical isoform): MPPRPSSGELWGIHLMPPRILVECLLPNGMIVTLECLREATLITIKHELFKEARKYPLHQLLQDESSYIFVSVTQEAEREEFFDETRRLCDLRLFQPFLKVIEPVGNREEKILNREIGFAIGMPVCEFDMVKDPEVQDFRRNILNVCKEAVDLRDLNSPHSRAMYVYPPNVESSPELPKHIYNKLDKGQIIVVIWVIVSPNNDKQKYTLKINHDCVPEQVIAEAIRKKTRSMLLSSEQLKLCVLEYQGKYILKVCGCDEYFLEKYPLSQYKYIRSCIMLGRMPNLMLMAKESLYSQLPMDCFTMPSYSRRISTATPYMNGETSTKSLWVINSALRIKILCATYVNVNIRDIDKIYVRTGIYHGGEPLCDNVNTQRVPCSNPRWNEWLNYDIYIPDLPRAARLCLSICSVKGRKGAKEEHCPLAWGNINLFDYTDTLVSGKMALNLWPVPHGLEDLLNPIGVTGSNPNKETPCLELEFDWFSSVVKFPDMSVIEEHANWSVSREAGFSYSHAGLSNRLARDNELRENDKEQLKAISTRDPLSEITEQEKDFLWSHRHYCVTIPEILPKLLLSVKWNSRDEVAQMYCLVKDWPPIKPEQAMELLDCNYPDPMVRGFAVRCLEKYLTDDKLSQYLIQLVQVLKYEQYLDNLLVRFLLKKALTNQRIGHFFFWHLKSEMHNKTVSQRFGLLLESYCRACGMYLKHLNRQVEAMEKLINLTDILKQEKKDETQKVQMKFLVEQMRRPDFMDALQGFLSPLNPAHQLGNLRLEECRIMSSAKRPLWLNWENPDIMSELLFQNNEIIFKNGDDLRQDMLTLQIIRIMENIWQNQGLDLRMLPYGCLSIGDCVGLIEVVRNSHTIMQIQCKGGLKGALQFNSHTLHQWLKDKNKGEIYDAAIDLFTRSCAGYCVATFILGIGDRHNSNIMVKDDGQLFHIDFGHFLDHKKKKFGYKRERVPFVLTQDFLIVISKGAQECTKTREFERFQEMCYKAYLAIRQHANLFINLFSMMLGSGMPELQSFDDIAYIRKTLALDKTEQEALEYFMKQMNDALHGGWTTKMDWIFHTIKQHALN

[26] = target: 5-hydroxytryptamine receptor 3A (Homo sapiens) (UniProt P46098); details: Compound concentration 10.0 uM
[27] = target: Alpha-2A adrenergic receptor (Homo sapiens) (UniProt P08913); details: Compound concentration 10.0 uM

What does the source list for COCCOc1nc(-c2ccc(Cl)nc2)nc2c1CN(C(=O)c1ncn3ccccc13)CC2 [THPP-1]?
inhibition [1]: 28%; inhibition [2]: 1%; inhibition [3]: -4%; inhibition [4]: 5%; inhibition [5]: 6%; inhibition [6]: -8%; inhibition [7]: 18%; inhibition ([8]; Compound concentration 0.01 uM): -6%; inhibition ([8]; Compound concentration 0.1 uM): 21%; inhibition ([8]; Compound concentration 1.0 uM): 40%; inhibition ([8]; Compound concentration 10.0 uM): 75%; IC50 (Adenosine Transporter): 1.61 µM; Ki (Adenosine Transporter): 0.55 µM; inhibition [9]: 8%; inhibition [10]: 12%; inhibition [11]: 4%; inhibition [12]: -4%; inhibition [13]: -1%; inhibition [14]: -2%; inhibition [15]: 11%; inhibition [16]: -7%; inhibition [17]: 17%; inhibition [18]: 21%; inhibition [19]: 1%; inhibition [20]: 2%; inhibition [21]: 6%; inhibition [22]: 5%; inhibition [23]: -1%; inhibition [24]: 1%

Which residual activity [25] does the source give for CC(C)CC(=O)N1CCc2nc(-c3ccc(Br)cc3)nc(N(C)Cc3ccccc3)c2C1 [THPP-1-NC] here?
Its residual activity is 100%.

And the inhibition [26]?
The inhibition was -4.38%.

What about the inhibition [27] of the same compound?
Its inhibition is 48.4%.
